Values quoted from earlier work in article PMC10925453, “Selective Bias Virtual Screening for Discovery of Promising Antimalarial Candidates targeting Plasmodium N-Myristoyltransferase” (Research Square, 2024).

Tests used:
human isoform 1 = conditions: no reference given
Plasmodium NMT = test system: Plasmodium NMT; parameters: method as in earlier work; conditions: ligand of the PDB structure, activity against Plasmodium NMT; ref PDB

| SMILES | IC50 (human isoform 1) [nM] | Ki (Plasmodium NMT) [nM] |
| --- | --- | --- |
| Cc1nn(C)c(C)c1Cc1nnc(-c2sc3ccccc3c2OC2CCNCC2)o1 [2YNE, 2-(3-piperidin-4-yloxy-1-benzothiophen-2-yl)-5-[(1,3,5-trimethylpyrazol-4-yl)methyl]-1,3,4-oxadiazole] | 60 ± 3 | 2.7 |
| Cc1nn(C)c(C)c1NS(=O)(=O)c1c(Cl)cc(-c2ccnc(N3CCNCC3)c2)cc1Cl [2YND] |  | 32 |
